From patent publication US20240327460A1, “NORA INHIBITORS AND METHODS OF USE” (priority 2021, published 2024) come the findings set out here.

Assay [1] concerns MRSA^ΔnorA. Nature of the assay: Norfloxacin MIC assays in MRSA (MIC test strips). The assay is classed as cell-based, Staphylococcus aureus. The settings on record: MRSA^ΔnorA expressing wild-type NorA relative to MRSA^ΔnorA alone. How it is done: Wild-type USA300 strain JE2 (“MRSA”) (Fey et al., “A Genetic Resource for Rapid and Comprehensive Phenotype Screening of Nonessential Staphylococcus aureus Genes,” Mbio 4:e00537-00512 (2013), which is hereby incorporated by reference in its entirety) and isogenic strains, norA::bursa (MRSA^ΔnorA) containing empty vector, or hemin-inducible NorA variants were grown overnight at 37° C. in TSB media supplemented with 10 μg/ml chloramphenicol and 1 μM hemin. The cultures were diluted to approximately 1×10^8 CFU/ml and evenly spread on TSA plates supplemented with 5 μg/ml chloramphenicol and 1 μM hemin. The norfloxacin MIC test strips (Liofilchem) were placed in the center of the plate and the plates were incubated for 24 hr at 37° C. The MIC values were read at the intersection of the inhibition eclipse and the strip. At least two independent MIC experiments were acquired for each sample; reported errors reflect the standard deviation among independent experiments.

Assay [2] addresses T1, NorA (Staphylococcus aureus, UniProt Q5HHX4).
T1 construct: made in house; host or cells: C43 (DE3) E. coli
Nature of the assay: FP competition binding experiment with norfloxacin. Set-up: species or system S. aureus. The settings on record: NorA 50 nM, FITC-NPI-1 15 nM, norfloxacin 10 nM and 2 mM. How it is done:
FP competition binding experiments with norfloxacin were performed using FITC-NPI-1 as described above. These experiments used a fixed concentration of NorA in PMAL-C8 amphipol at 50 nM and FITC-NPI-1 at 15 nM with norfloxacin concentrations of 10 nM and 2 mM in 100 μL solutions of 20 mM Tris pH 7.5, 100 mM NaCl, 10% glycerol, 0.1% pluronic acid, and 1.2% DMSO. A control experiment was performed in the same manner but in the absence of NorA. Four independent trials of FP experiments were performed, each in triplicate.

Assay [3] has as its system MRSA and MRSA^ΔnorA. Nature of the assay: Bacteriostatic/bactericidal effect of norfloxacin on MRSA (CFU). As to conditions: norfloxacin 0, 12.5 or 25 μg/ml; 1, 2, 4 hr. The assay is classed as cell-based, Staphylococcus aureus. How it is done: MRSA or MRSA^ΔnorA were cultured overnight in 5 ml TSB and diluted 1:1,000 with TSB the next morning. In a round-bottom 96-well plate, 50 μl of the diluted culture was mixed with 50 μl of TSB supplemented with norfloxacin. The final concentration of MRSA or MRSA^ΔnorA was ˜1×10^6 CFU/ml and norfloxacin was 0, 12.5, or 25 μg/ml. The plate was incubated while shaking at 37° C. At 0 hr and after 1, 2, or 4 hr of incubation, CFUs of MRSA or MRSA^ΔnorA were enumerated by serially diluting in PBS and spot plating on TSA plates.

Assay [4] concerns MRSA. The assay is classed as cell-based, Staphylococcus aureus. How it is done:
To test the effects of peptides, overnight cultures of wild-type MRSA and MRSA^ΔnorA in TSB media were diluted 1:1,000 in TSB with varying concentrations of peptides, in the presence or the absence of norfloxacin (12.5 μg/ml). All the peptide concentrations contained equal amount of the DMSO vehicle. OD600nm was measured as a function of time in a BioScreen C device at 37° C. with shaking between measurements every 15 min. Three independent experiments were acquired; reported errors reflect the standard deviation among the independent experiments.

For assay [5], the target named is T1, NorA. Nature of the assay: Competitive MST peptide binding experiment (NPI-1 versus labelled Fab36). The settings on record: NorA 6 μM, Fab36 40 nM, NPI-1 1.5 nM to 50 μM. More on the design: species or system S. aureus. How it is done:
Competitive peptide binding experiments were performed with MST using fluorescently labelled Fab36 as described above. These experiments used fixed concentrations of NorA in PMAL-C8 amphipol at 6 μM and Fab36 at 40 nM, and a variable concentration of NPI-1 from 1.5 nM to 50 μM. Competitive peptide binding experiments were collected with three replicates.

In assay [6] the target is T1, NorA. Nature of the assay: Fluorescence polarization (FP) binding of FITC-NPI-1 to NorA. Set-up: species or system S. aureus. How it is done: Amphipol-purified NorA underwent an additional round of SEC to remove free amphipol. Fluorescence polarization (FP) experiments were performed on a DTX 880 Multimode Detector (Beckman) at 25° C. with excitation and emission wavelengths set to 485 and 525 nm, respectively. For NorA binding assays, increasing concentrations of NorA were added to wells of 15 nM FITC-NPI-1 in 100 μL solutions of 20 mM Tris pH 7.5, 100 mM NaCl, 10% glycerol, 0.1% pluronic acid, and 1.2% DMSO on black, U-shape 96 well plates (BRANDplates). All samples were incubated for 15 min on a shaking plate. FP values as a function of NorA concentration ([L]) were fit using the following quadratic binding equation in GraphPad Prism to obtain the binding affinity (Kd) for FITC-NPI-1 ([P]T).
Ymax and Yoffset are normalization parameters. The reported Kd value and error for FITC-NPI-1 reflects the average and standard deviation among seven independent experiments, each performed in triplicate.

T1 sequence (Q5HHX4 whole entry): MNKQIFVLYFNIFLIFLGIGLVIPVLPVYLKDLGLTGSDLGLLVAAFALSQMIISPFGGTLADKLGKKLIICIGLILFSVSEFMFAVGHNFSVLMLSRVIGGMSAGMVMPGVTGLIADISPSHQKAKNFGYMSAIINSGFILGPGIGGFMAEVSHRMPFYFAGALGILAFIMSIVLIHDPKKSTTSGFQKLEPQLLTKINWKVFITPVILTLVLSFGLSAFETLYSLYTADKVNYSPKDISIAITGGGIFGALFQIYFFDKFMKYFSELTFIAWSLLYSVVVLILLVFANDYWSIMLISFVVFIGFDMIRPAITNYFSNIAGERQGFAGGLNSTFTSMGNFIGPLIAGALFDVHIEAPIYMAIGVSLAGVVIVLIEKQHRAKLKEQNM

For the compound `CCn1cc(C(=O)O)c(=O)c2cc(F)c(N3CCNCC3)cc21` [norfloxacin], the “greater norfloxacin MIC” value in assay [1] is reported as 20 fold. Also, the “competition with NPI-1 binding to NorA” value in assay [2] is listed as “compete with NPI-1 binding to NorA”. The “effect on the growth of MRSA and MRSA^ΔnorA” value in assay [3] was “bacteriostatic effect”.
For “H-YYYYAWRVGGYWR-NH2 [NPI-1, NH2-YYYYAWRVGGYWR-CONH2]”, the 50% inhibitory concentration (IC50) (commonly the point on the concentration scale where inhibition reaches its midpoint) in assay [4] (in the presence of 12.5 μg/ml norfloxacin, 10 hr timepoint, read-out: IC50 growth inhibition of MRSA) came to 0.72 ± 0.08 µM. Also, in assay [4] (peptide alone, no norfloxacin), the “growth of MRSA in the absence of norfloxacin” value is on record as “did not inhibit the growth of MRSA”. For the same compound, the “displacement of bound Fab36 from NorA” value in assay [5] is on record as “could displace bound Fab36 from NorA”. In assay [6], the Kd (as a rule, the free concentration of one partner at which half of the binding sites on the other are occupied at equilibrium, for simple one-to-one binding) turned out to be 0.01 ± 0.005 µM. The “greater affinity to NorA” value in assay [6] (NPI-1 relative to Fab36) was roughly 14 fold.
